Laboratory results published in patent publication US9624215B2, “Amine derivative or salt thereof” (TOYAMA CHEMICAL CO., LTD., priority 2012, dated 2017).

Tested on: normal human neonatal foreskin epidermal keratinocytes (NHEK-F)
Experiment: Cell proliferation inhibition test
Type: cell-based
Settings: Keratinocyte, 72 h, NHEK-F cells, three days incubation, ATPlite or CellTiterGlo, read-out: IC50 (concentration of the compound at which the cell count is reduced by 50%)
Procedure: 2×10^3 normal human neonatal foreskin epidermal keratinocytes (NHEK-F) (Kurabo, KK-4009) were suspended in 100 μL of Humedia-EG2 (Kurabo, KK-2150S) medium, plated in a 96-well plate and incubated overnight. The test compound was added on the following day and the cells were incubated for further three days. The cell count was determined using ATPlite (PerkinElmer, 6016739) or CellTiterGlo (Promega, G7573).
The inhibition rate was calculated from the following formula to determine the concentration of the compound at which the cell count is reduced by 50% (IC50). Inhibition rate (%)=100−(cell count in the presence of test compound/cell count in the absence of test compound)×100

Row | Compound | IC50 [nM]
1 | CCn1ccc2cc(Nc3ncc(C4CC4)cc3C(=O)O)ccc21 [Example 121, 5-cyclopropyl-2-((1-ethyl-1H-indol-5-yl)amino)nicotinic acid] | 100 to 1000
2 | Cn1ccc2cc(Nc3ncc(C4CC4)cc3C(=O)O)cc(-c3ccccc3C(F)(F)F)c21 [Example 479] | ≤ 10
3 | O=C(O)c1cc(C2CC2)cnc1Nc1ccc2c(ccn2Cc2ccccc2C(F)(F)F)c1 [Example 449, 5-cyclopropyl-2-((1-(2-(trifluoromethyl)benzyl)-1H-indol-5-yl)amino)nicotinic acid] | 10 to 100
4 | O=C(O)c1cc(Cl)ccc1Nc1ccnc2c1ccn2Cc1ccccc1 [Example 9, 2-((1-benzyl-1H-pyrrolo(2,3-b)pyridin-4-yl)amino)-5-chlorobenzoic acid] | 10 to 100
5 | Cc1cc(C)cc(Cn2ccc3cc(Nc4ncc(C5CC5)cc4C(=O)O)ccc32)c1 [Example 498, 5-cyclopropyl-2-((1-(3,5-dimethylbenzyl)-1H-indol-5-yl)amino)nicotinic acid] | ≤ 10
6 | N#Cc1ccccc1Cn1ccc2cc(Nc3ncc(C4CC4)cc3C(=O)O)ccc21 [Example 452, 2-((1-(2-cyanobenzyl)-1H-indol-5-yl)amino)-5-cyclopropylnicotinic acid] | 10 to 100
7 | CCCn1ccc2c(Nc3ncc(C4CC4)cc3C(=O)O)cccc21 [Example 419, 5-cyclopropyl-2-((1-propyl-1H-indol-4-yl)amino)nicotinic acid] | 10 to 100
8 | COCCn1ccc2cc(Nc3ncc(C4CC4)cc3C(=O)O)ccc21 [Example 129, 5-cyclopropyl-2-((1-(2-methoxyethyl)-1H-indol-5-yl)amino)nicotinic acid] | 100 to 1000
9 | O=C(O)c1cc(C2CC2)cnc1Nc1cccc2c(-c3ccccc3)cccc12 [Example 367, 5-cyclopropyl-2-((5-phenylnaphthalen-1-yl)amino)nicotinic acid] | ≤ 10
10 | Cn1ccc2cc(Nc3ncc(C4CC4)cc3C(=O)O)cc(-c3ccc(C(F)(F)F)cc3)c21 [Example 481] | ≤ 10
11 | Cc1cccc(-c2cc(Nc3ncc(C4CC4)cc3C(=O)O)cc3ccn(C)c23)c1 [Example 477, 5-cyclopropyl-2-((1-methyl-7-(m-tolyl)-1H-indol-5-yl)amino)nicotinic acid] | ≤ 10
12 | CCO/C=C/c1cc(Nc2ncc(C3CC3)cc2C(=O)O)cc2ccn(C)c12 [Example 604, 5-cyclopropyl-2-((7-((E)-2-ethoxyethenyl)-1-methyl-1H-indol-5-yl)amino)nicotinic acid] | 10 to 100
13 | O=C(O)c1cc(C2CC2)cnc1Nc1ccc2c(ccn2Cc2c(F)cccc2F)c1 [Example 634, 5-cyclopropyl-2-((1-(2,6-difluorobenzyl)-1H-indol-5-yl)amino)nicotinic acid] | ≤ 10
14 | CCn1c(C(C)(C)C)cc2cc(Nc3ncc(C4CC4)cc3C(=O)O)ccc21 [Example 158, 2-((2-(tert-butyl)-1-ethyl-1H-indol-5-yl)amino)-5-cyclopropylnicotinic acid] | 10 to 100
15 | Cn1ccc2cc(Nc3ncc(C4CC4)cc3C(=O)O)cc(-c3cccc(OC(F)(F)F)c3)c21 [Example 492, 5-cyclopropyl-2-((1-methyl-7-(3-(trifluoromethoxy)phenyl)-1H-indol-5-yl)amino)nicotinic acid] | ≤ 10
16 | O=C(O)c1cc(C2CC2)cnc1Nc1ccc2c(-c3ccccc3)ncnc2c1 [Example 529, 5-cyclopropyl-2-((4-phenylquinazolin-7-yl)amino)nicotinic acid] | 10 to 100
17 | COCCCc1cc(Nc2ncc(C3CC3)cc2C(=O)O)cc2ccn(CC3CC3)c12 [Example 609, 5-cyclopropyl-2-((1-(cyclopropylmethyl)-7-(3-methoxypropyl)-1H-indol-5-yl)amino)nicotinic acid] | ≤ 10
18 | O=C(O)c1cc(C2CC2)cnc1Nc1ccc2c(c1)Cc1ccccc1-2 [Example 405, 2-((9H-fluoren-2-yl)amino)-5-cyclopropylnicotinic acid] | 10 to 100
